Measurements as given in patent US9540348B2, “Imidazole-1-yl pyrimidine derivatives, or pharmacutically acceptable salt thereof, and pharmaceutic composition comprising the same as an active ingredient” (Industry-University Cooperation Foundation Hanyang …, priority 2015, dated 2017).
Entries after “also recorded” stand apart in the source; their conditions may differ.

How the values were obtained:
[1] = test system: U937 human leukemic monocyte lymphoma cell line; test: Antiproliferative activity to U937 human leukemic monocyte lymphoma cell line; format: cell-based; conditions: for GI50: U-937, U937 human leukemic monocyte lymphoma cell line, read-out: U937 (GI50, Unit: μM); for potency against U937, in words: U937 cell line, comparison with Sorafenib
Protocol: (§1) The antiproliferative activity of the compounds of Examples to A375P human melanoma cell line and U937 human leukemic monocyte lymphoma cell line are evaluated and listed in the following Table 1.

[2] = test system: A375P human melanoma cell line; test: Antiproliferative activity to A375P human melanoma cell line; format: cell-based; conditions: for GI50: A375P human melanoma cell line, read-out: A375P (GI50, Unit: μM); for potency against A375P, in words: A375P cell line, comparison with Sorafenib
Protocol: as §1

Row | Structure (SMILES) | GI50 [1] [µM] | GI50 [2] [µM] | potency against U937, in words [1] | potency against A375P, in words [2]
1 | C[C@H](O)CNc1nccc(-n2ccnc2Cc2cccc(NC(=O)Nc3ccc(Cl)c(Cl)c3)c2)n1 [Example 22, (S)-1-(3,4-dichlorophenyl)-3-(3-((1-(2-((2-hydroxypropyl)amino)pyrimidin-4-yl)-1H-imidazol-2-yl)methyl)phenyl)urea] | 15.3 | 26.2 |  | 
2 | C[C@H](O)CNc1nccc(-n2ccnc2Cc2cccc(NC(=O)Cc3ccccc3F)c2)n1 [Example 4, (S)-2-(2-fluorophenyl)-N-(3-((1-(2-((2-hydroxypropyl)amino)pyrimidin-4-yl)-1H-imidazol-2-yl)methyl)phenyl)acetamide] | > 30 | 7.45 |  | 
3 | C[C@H](O)CNc1nccc(-n2ccnc2Cc2cccc(NC(=O)c3ccc(Cl)cc3)c2)n1 [Example 6, (S)-4-chloro-N-(3-((1-(2-((2-hydroxypropyl)amino)pyrimidin-4-yl)-1H-imidazol-2-yl)methyl)phenyl)benzamide] | > 30 | 10.2 |  | 
4 | C[C@H](O)CNc1nccc(-n2ccnc2C(=O)c2cccc(NC(=O)c3cc(N4CCN(C)CC4)cc(C(F)(F)F)c3)c2)n1 [Example 28, (S)—N-(3-(1-(2-((2-hydroxypropyl)amino)pyrimidin-4-yl)-1H-imidazole-2-carbonyl)phenyl)-3-(4-methylpiperazin-1-yl)-5-(trifluoromethyl)benzamide] |  | 27.8 |  | 
5 | Cc1cc(C)cc(C(=O)Nc2cccc(Cc3nccn3-c3ccnc(NC[C@H](C)O)n3)c2)c1 [Example 2, (S)—N-(3-((1-(2-((2-hydroxypropyl)amino)pyrimidin-4-yl)-1H-imidazol-2-yl)methyl)phenyl)-3,5-dimethylbenzamide] | 16.8 |  |  | 
6 | C[C@H](O)CNc1nccc(-n2ccnc2C(=O)c2ccc(NC(=O)c3ccc(Cl)cc3)cc2)n1 [Example 33, (S)-4-chloro-N-(4-(1-(2-((2-hydroxypropyl)amino)pyrimidin-4-yl)-1H-imidazole-2-carbonyl)phenyl)benzamide] |  | 7.07 |  | 
7 | C[C@H](O)CNc1nccc(-n2ccnc2C(=O)c2ccc(NC(=O)c3cccc(Cl)c3)cc2)n1 [Example 34, (S)-3-chloro-N-(4-(1-(2-((2-hydroxypropyl)amino)pyrimidin-4-yl)-1H-imidazole-2-carbonyl)phenyl)benzamide] |  | 5.92 |  | 
8 | C[C@H](O)CNc1nccc(-n2ccnc2Cc2cccc(NC(=O)c3ccncc3)c2)n1 [Example 10, (S)—N-(3-((1-(2-((2-hydroxypropyl)amino)pyrimidin-4-yl)-1H-imidazol-2-yl)methyl)phenyl)isonicotinamide] |  | 8.92 |  | 
9 | C[C@H](O)CNc1nccc(-n2ccnc2Cc2cccc(NC(=O)c3ccc4[nH]nnc4c3)c2)n1 [Example 9, (S)—N-(3-((1-(2-((2-hydroxypropyl)amino)pyrimidin-4-yl)-1H-imidazol-2-yl)methyl)phenyl)-1H-benzo[d][1,2,3]triazole-5-carboxamide] | 18.5 | > 30 |  | 
10 | C[C@H](O)CNc1nccc(-n2ccnc2Cc2cccc(NC(=O)c3cc(N4CCN(C)CC4)cc(C(F)(F)F)c3)c2)n1 [Example 1, (S)—N-(3-((1-(2-((2-hydroxypropyl)amino)pyrimidin-4-yl)-1H-imidazol-2-yl)methyl)phenyl)-3-(4-methylpiperazin-1-yl)-5-(trifluoromethyl)benzamide] | > 30 | 12.3 |  | 
11 | Cc1c(C)c2c(c(C)c1O)CC[C@](C)(C(=O)Nc1cccc(Cc3nccn3-c3ccnc(NC[C@H](C)O)n3)c1)O2 [Example 16, (R)-6-hydroxy-N-(3-((1-(2-(((S)-2-hydroxypropyl)amino)pyrimidin-4-yl)-1H-imidazol-2-yl)methyl)phenyl)-2,5,7,8-tetramethylchromane-2-carboxamide] | 23.6 |  |  | 
12 | C[C@H](O)CNc1nccc(-n2ccnc2Cc2cccc(NC(=O)c3cnn(-c4ccccc4)c3C(F)(F)F)c2)n1 [Example 5, (S)—N-(3-((1-(2-((2-hydroxypropyl)amino)pyrimidin-4-yl)-1H-imidazol-2-yl)methyl)phenyl)-1-phenyl-5-(trifluoromethyl)-1H-pyrazole-4-carboxamide] | 25.8 | 6.39 |  | 

Continued by falling GI50 [1], values first:

Row | GI50 [1] [µM] | GI50 [2] [µM] | Structure (SMILES) | potency against U937, in words [1] | potency against A375P, in words [2]
13 | 14.7 | > 30 | C[C@H](O)CNc1nccc(-n2ccnc2C(=O)c2ccc(NC(=O)c3cc(N4CCN(C)CC4)cc(C(F)(F)F)c3)cc2)n1 [Example 36, (S)—N-(4-(1-(2-((2-hydroxypropyl)amino)pyrimidin-4-yl)-1H-imidazole-2-carbonyl)phenyl)-3-(4-methylpiperazin-1-yl)-5-(trifluoromethyl)benzamide] |  | 
14 | 11.6 | > 30 | C[C@H](O)CNc1nccc(-n2ccnc2C(=O)c2ccc(NC(=O)Nc3ccc(Cl)c(Cl)c3)cc2)n1 [Example 39, (S)-1-(3,4-dichlorophenyl)-3-(4-(1-(2-((2-hydroxypropyl)amino)pyrimidin-4-yl)-1H-imidazole-2-carbonyl)phenyl)urea] |  | 
15 | 10 |  | C[C@H](O)CNc1nccc(-n2ccnc2Cc2cccc(NC(=O)c3ccccc3Sc3ccccc3C#N)c2)n1 [Example 15, (S)-2-((2-cyanophenyl)thio)-N-(3-((1-(2-((2-hydroxypropyl)amino)pyrimidin-4-yl)-1H-imidazol-2-yl)methyl)phenyl)benzamide] |  | 
16 | 10 | 11.2 | C[C@H](O)CNc1nccc(-n2ccnc2Cc2cccc(NC(=O)Cc3ccc(-c4ccccc4)cc3)c2)n1 [Example 11, (S)-2-([1,1′-biphenyl]-4-yl)-N-(3-((1-(2-((2-hydroxypropyl)amino)pyrimidin-4-yl)-1H-imidazol-2-yl)methyl)phenyl)acetamide] |  | 
17 | 9.7 | 6.6 | C[C@H](O)CNc1nccc(-n2ccnc2Cc2cccc(NC(=O)c3cc(N4CCOCC4)cc(C(F)(F)F)c3)c2)n1 [Example 20, (S)—N-(3-((1-(2-((2-hydroxypropyl)amino)pyrimidin-4-yl)-1H-imidazol-2-yl)methyl)phenyl)-3-morpholino-5-(trifluoromethyl)benzamide] |  | 
18 | 7.45 | > 30 | C[C@H](O)CNc1nccc(-n2ccnc2C(=O)c2ccc(NC(=O)Nc3ccc(Cl)c(C(F)(F)F)c3)cc2)n1 [Example 38, (S)-1-(4-chloro-3-(trifluoromethyl)phenyl)-3-(4-(1-(2-((2-hydroxypropyl)amino)pyrimidin-4-yl)-1H-imidazole-2-carbonyl)phenyl)urea] |  | 
19 | 6.83 | 3.3 | C[C@H](O)CNc1nccc(-n2ccnc2Cc2cccc(NC(=O)c3ccc(Cl)c(C(F)(F)F)c3)c2)n1 [Example 19, (S)-4-chloro-N-(3-((1-(2-((2-hydroxypropyl)amino)pyrimidin-4-yl)-1H-imidazol-2-yl)methyl)phenyl)-3-(trifluoromethyl)benzamide] | large potencies | large potencies
20 | 4.9 |  | C[C@H](O)CNc1nccc(-n2ccnc2C(=O)c2cccc(NC(=O)c3cc(N4CCOCC4)cc(C(F)(F)F)c3)c2)n1 [Example 27, (S)—N-(3-(1-(2-((2-hydroxypropyl)amino)pyrimidin-4-yl)-1H-imidazole-2-carbonyl)phenyl)-3-morpholino-5-(trifluoromethyl)benzamide] |  | 
21 | 3.78 | > 30 | C[C@H](O)CNc1nccc(-n2ccnc2C(=O)c2cccc(NC(=O)c3cccc(C(F)(F)F)c3)c2)n1 [Example 25, (S)—N-(3-(1-(2-((2-hydroxypropyl)amino)pyrimidin-4-yl)-1H-imidazole-2-carbonyl)phenyl)-3-(trifluoromethyl)benzamide] |  | 
22 | 3.24 | 3.97 | C[C@H](O)CNc1nccc(-n2ccnc2Cc2cccc(NC(=O)C(c3ccc(Cl)cc3)c3ccc(Cl)cc3)c2)n1 [Example 17, (S)-2,2-bis(4-chlorophenyl)-N-(3-((1-(2-(2-hydroxypropylamino)pyrimidin-4-yl)-1H-imidazol-2-yl)methyl)phenyl)acetamide] |  | 
23 | 2.74 | 3.4 | CNC(=O)c1cc(Oc2ccc(NC(=O)Nc3ccc(Cl)c(C(F)(F)F)c3)cc2)ccn1 [Sorafenib, reference compound] |  | 
24 | 2.55 | 9.39 | COc1ccc(-c2ccc(C(=O)Nc3cccc(C(=O)c4nccn4-c4ccnc(NC[C@H](C)O)n4)c3)o2)cc1 [Example 26, (S)—N-(3-(1-(2-((2-hydroxypropyl)amino)pyrimidin-4-yl)-1H-imidazole-2-carbonyl)phenyl)-5-(4-methoxyphenyl)furan-2-carboxamide] |  | 
25 | 1.73 | 19.2 | C[C@H](O)CNc1nccc(-n2ccnc2Cc2cccc(NC(=O)Nc3cccc(Cl)c3)c2)n1 [Example 21, (S)-1-(3-chlorophenyl)-3-(3-((1-(2-((2-hydroxypropyl)amino)pyrimidin-4-yl)-1H-imidazol-2-yl)methyl)phenyl)urea] |  | 
26 | 1.68 | 0.6 | C[C@H](O)CNc1nccc(-n2ccnc2Cc2cccc(NC(=O)c3ccc(-c4ccccc4)cc3)c2)n1 [Example 12, (S)—N-(3-((1-(2-((2-hydroxypropyl)amino)pyrimidin-4-yl)-1H-imidazol-2-yl)methyl)phenyl)-[1,1′-biphenyl]-4-carboxamide] | large potencies; also recorded: better potencies than Sorafenib | large potencies; also recorded: better potencies than Sorafenib
